Our source for the FMN saturation values is paper PMC7216909 (Chembiochem, 2020).

This assay deals with T1, FOYE-1 (Ferrovum sp. JA12, UniProt A0A0R0LNE8).
T1 sequence (A0A0R0LNE8 1-354): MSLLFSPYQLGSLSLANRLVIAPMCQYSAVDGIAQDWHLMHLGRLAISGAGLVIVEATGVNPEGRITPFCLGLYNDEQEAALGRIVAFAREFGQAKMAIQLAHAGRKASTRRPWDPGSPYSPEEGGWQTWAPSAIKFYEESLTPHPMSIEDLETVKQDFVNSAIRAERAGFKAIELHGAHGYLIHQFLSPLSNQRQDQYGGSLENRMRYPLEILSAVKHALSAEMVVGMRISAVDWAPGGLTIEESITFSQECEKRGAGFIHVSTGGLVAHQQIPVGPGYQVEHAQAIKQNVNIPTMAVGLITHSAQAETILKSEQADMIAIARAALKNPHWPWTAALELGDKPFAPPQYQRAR
Put plainly: FMN quantification at […] nm in purified protein. It is filed as binding. The note with it: co-purified flavin cofactor; partly saturated holoprotein.

Structures are written as SMILES.

Consider `Cc1cc2nc3c(=O)[nH]c(=O)nc-3n(C[C@H](O)[C@H](O)[C@H](O)COP(=O)(O)O)c2cc1C` [FMN], for which the FMN saturation result was “found to be only partially saturated with the flavin mononucleotide (FMN) cofactor”.
